# Values of other authors, collected in EP0986632B1, “DELIVERY SYSTEMS” (THE PROCTER & GAMBLE COMPANY, priority 1997, dated 1998).
# Conditions: 25°C; from M. L. Tobe, Adv. Inorg Bioinorg. Mech. (1983), 2, Table 1 at page 17
row,base hydrolysis rates (kOH) [M⁻¹ s⁻¹],Molecule
1,0.00025,oxalate
2,0.0005,N#CS [NCS^-]
3,0.00096,CC(=O)O [acetate]

row,Molecule,base hydrolysis rates (kOH) [M⁻¹ s⁻¹]
1,O=CO [formate],0.00058
